From US20250213561A1, “SELECTIVE HYPOTHALAMUS PERMEABLE HDAC6 INHIBITORS FOR TREATMENT OF LEPTIN-RESISTANT OBESITY” (The Children’s Medical Center Corporation, priority 2022, published 2025)
Entries after “also recorded” stand apart in the source; their conditions may differ.

Tests used:
Assay type in all cases: in vivo
DIO mice [1] = experiment: Chronic treatment of DIO mice (body weight, food intake, DEXA, glucose homeostasis); conditions: for hepatic steatosis (H&E liver): 3 weeks; for food intake: 3 weeks treatment; for glucose tolerance test (GTT): after 1 week; for HOMA-IR insulin resistance / serum insulin levels / serum leptin levels: after 3 weeks; for food intake and total body fat mass (summary): high fat diet induced mice
Experimental: DIO mice were treated with ACY775 (10 mg/kg/day, i.p.) for 3 weeks. Daily body weight (g) of DIO mice treated with vehicle (n=17) or ACY775 (n=17) during 3 weeks of treatment was determined. Daily food intake (g) during 3 weeks of vehicle or ACY775 treatment was assessed. 24 hours' food intake per mouse during the first week of vehicle or ACY775 treatment was determined. Serum leptin (ng/ml) levels after 3 weeks of vehicle (n=24) or ACY775 (n=24) treatment was assessed. Lean mass (g), fat mass (g) and fat percentage (%) after 3 weeks of vehicle (n=17) or ACY775 (n=17) treatment measured by Dual-energy X-ray absorptiometry (DEXA) scan. DEXA scans were performed in two different cohorts. Glucose tolerance test (GTT) after 1 week of vehicle (n=33) or ACY775 (n=26) treated DIO mice was assessed. Area of curve (AOC) analysis for GTT was performed. Blood glucose (mg/dl) levels after 1 week of vehicle (n=17) or ACY775 (n=16) were assessed in treated DIO mice. Insulin tolerance test (ITT) was performed after 2 weeks of vehicle (n=31) or ACY775 (n=21) treatment of DIO mice. Serum insulin (ng/ml) levels were measured after 3 weeks of vehicle (n=22) or ACY775 (n=21) in treated DIO mice. A homeostatic model assessment of insulin resistance (HOMA-IR) was analyzed after 3 weeks of vehicle (n=14) or ACY775 (n=13) treated DIO mice.
Food intake was analyzed hourly until 3:00 am. […] DEXA scans were performed in two different cohorts.
DIO mice then were treated with ricolinostat (50 mg/kg, i.p.) for 3 weeks. Daily body weight (g), daily food intake (g), serum leptin (ng/ml) levels after 3 weeks of vehicle (n-8) or ricolinostat (n=8) treatment, lean mass (g); fat mass and fat percentage (%) after 3 weeks of vehicle (n=16) or ricolinostat (n=17) treatment measured by DEXA scan were determined.
Blood glucose (mg/dl) levels were measured after 1 week of vehicle (n=16) or ricolinostat (n=16) treated DIO mice. GTT after 1 week of vehicle (n=17) or ricolinostat (n=16) treatment of DIO mice was assessed. AOC analysis for GTT was performed. ITT after 2 weeks of vehicle (n=17) or ricolinostat (n=16) treated DIO mice was measured. Serum insulin (ng/ml) levels after 3 weeks of vehicle (n=8) or ricolinostat (n=8) treatment were measured in DIO mice. Liver sections from 3 weeks of vehicle or ricolinostat treated DIO mice were stained by H&E.
DIO mice then were treated with bavarostat (10 mg/kg, i.p.) for 3 weeks and daily body weight (g) of DIO mice treated with Veh (n=9) or bavarostat (n=9) measured during the three weeks of treatment period. Daily food intake (g) during 3 weeks of Veh or bavarostat treatment was also measured.
ACY1083 was administered to DIO mice as described in Example 3.

DIO mice [2] = experiment: Acute leptin co-treatment in DIO mice (body weight, food intake 15 h); conditions: for body weight, leptin after pre-treatment with inhibitor: 3 days pre-treatment
Experimental: DIO mice were pretreated with ACY775 (10 mg/kg/day, i.p.) or vehicle for 3 days, which was followed by co-treatment with ACY775 (or vehicle) and leptin (1 mg/kg, i.p.) (or saline) (n=9 for each group), % change in body weight 15 h after leptin treatment, food intake (g) during the 15 h period after leptin treatment. The results in were reproduced in two independent experiments.
Diet induced obese (DIO) mice were pretreated with ACY775 (10 mg/kg/day, i.p.) or vehicle for 3 days, which was followed by co-treatment with ACY775 (or vehicle) and leptin (1 mg/kg, i.p.) (or saline) (n=9 for each group). Mice were evaluated for % change in body weight 15 h after leptin treatment, and food intake (g) during the 15 h period after leptin treatment.
DIO mice were pretreated with ricolinostat (25 mg/kg/day, i.p.) or vehicle for 3 days, which was followed by co-treatment with ricolinostat (or vehicle) and leptin (1 mg/kg, i.p.) (or saline) (n=32 for each group). Change in body weight 15 h after leptin treatment, and food intake (g) during the 15 h period after leptin treatment were determined. The results were reproduced in two independent experiments.

db/db mice = experiment: Chronic treatment of db/db mice; conditions: for ITT blood glucose: 2 weeks; for fasting blood glucose: after the first week
Experimental: Daily food intake (g), Serum leptin (ng/ml), lean mass (g), fat mass (g) and fat percentage (%) were measured after 3 weeks of treatment measured by DEXA scan. GTT was determined after 1 week of treatment. AOC analysis for GTT was performed and Blood glucose (mg/dl) levels were measured after 1 week of treatment. Blood glucose (mg/dl) levels and Serum insulin (ng/ml) levels were measured after 3 weeks of treatment. ITT was assessed after 2 weeks of treatment. H&E staining of the liver sections was conducted after 3 weeks of treatment.

[3] = system: ACY775-responsive DMH neurons; experiment: Caspase3 ablation of ACY775-responsive DMH neurons in TRAP2 DIO mice
Experimental: Whether the activity of ACY775-responsive DMH neurons could be involved in the food intake and bodyweight reducing activity of HDAC6 inhibitors was investigated as a possible second order of neurons to AgRP^ARC neurons. These neurons were ablated to investigate the necessity of these neurons in mediating the ACY775's anti-obesity effects. AAV-flex-taCasp3-TEVp was injected into the DMH of TRAP2 DIO mice, and then the mice were injected with a single dose of ACY775 and 4-OHT to ablate these neurons through caspase3 protein activation. To make sure that this experimental system worked, the existence of ACY775-responsive DMH neurons was verified by c-fos staining after injection of a second dose of ACY775. This experimental method predicts that caspase 3, when activated by administration of the first dose of ACY775 in conjugation with 4-OHT injection, will lead to ablation of ACY775-responsive DMH neurons, and diminish the c-fos signals that would otherwise be created by the second dose of ACY775.

[4] = leptin 1 mg/kg i.p., 15 h period

| SMILES | insulin tolerance test (ITT) (DIO mice [1]; DIO mice) | hepatic steatosis (H&E liver) (DIO mice [1]; DIO mice) | food intake (DIO mice [1]; DIO mice) | glucose tolerance test (GTT) (DIO mice [1]; DIO mice) | HOMA-IR insulin resistance (DIO mice [1]; DIO mice) | serum insulin levels (DIO mice [1]; DIO mice) | serum leptin levels (DIO mice [1]; DIO mice) | food intake and total body fat mass (summary) (DIO mice [1]) | body weight, leptin after pre-treatment with inhibitor (DIO mice [2]; leptin 1 mg/kg i.p., 15 h) | food intake, leptin together with inhibitor (DIO mice [2]; [4]) | food intake (db/db mice) | ITT blood glucose (db/db mice) | fasting blood glucose (db/db mice) | daily food intake on treatment (DIO mice [1]; DIO mice, ACY775 10 mg/kg, ACY738 50 mg/kg i.p.) [g] | body weight, agent alone (DIO mice [2]; 15 h, ACY775 10 mg/kg, ricolinostat 25 mg/kg, leptin 1 mg/kg i.p.) | food intake, agent alone (DIO mice [2]; 15 h period) | blood glucose lowering at end of treatment (db/db mice; 3 weeks) | body weight and food consumption, chronic ([3]; 10 mg/kg/day i.p.) | blood glucose levels ([3]; caspase3^on-DMH versus caspase3^off-DMH) | food intake in fasted mice ([3]; caspase3^on-DMH versus caspase3^off-DMH, 10 mg/kg i.p.) |
| --- | --- | --- | --- | --- | --- | --- | --- | --- | --- | --- | --- | --- | --- | --- | --- | --- | --- | --- | --- | --- |
| O=C(NO)c1cnc(NC2(c3ccccc3)CC2)nc1 [ACY738] | improved insulin tolerance | improved hepatic steatosis | severely reduced | significant improvement of glucose homeostasis | ameliorated insulin resistance | reduced insulin levels | significantly decreased | significant reduction of food intake and total body fat mass | significantly augmented the acute leptin-induced reduction in body weight and food intake | significantly augmented the acute leptin-induced reduction in body weight and food intake | not affected | no significant difference in blood glucose levels | not affected |  |  |  |  |  |  |  |
| O=C(NO)c1cnc(NC2(c3cccc(F)c3)CCCCC2)nc1 [ACY775, 2-[[1-(3-fluorophenyl)cyclohexyl]amino]-N-hydroxy-5-pyrimidinecarboxamide] |  | almost completely abolished hepatic steatosis | highly significant reduction | significantly improved glucose tolerance | significantly reduced the insulin resistance | significantly reduced the circulating insulin levels | significantly downregulated | significant reduction of food intake and total body fat mass | further reduction in bodyweight | further augmented the negative effect of leptin on food intake | transitionally reduced | no significant difference in blood glucose levels | lower in ACY775-treated mice than vehicle-treated mice | 0.85 ± 0.06 | significantly decreased the bodyweight | reduced the food intake | completely diminished | neither reduced the body weight nor the food consumption in caspase3^on-DMH mice; also recorded: did reduce the food intake and bodyweight in caspase3^off-DMH mice | significantly higher in caspase3^on-DMH mice | significantly higher than caspase3^off-DMH mice |
